Data published in ChEMBL document CHEMBL4613212, “Insights of synthetic analogues of anti-leprosy agents” (Bioorg Med Chem, 2019).
Converted amounts (≈) assume the structure as drawn.

What was measured:
Mycobacterium leprae [1] = assay: Anti-leprotic activity against Mycobacterium leprae infected in BALB/c mouse assessed as time delay in bacterial multiplication in footpad at 0.01 g/100g of diet administered via feed starting 60 or 75 day post infection up to 90 days by Shepard's kinetic method; format: functional
[2] = Half life in rat at 400 mg/kg, sc administered as single dose; format: ADME, organism-based; conditions: in vivo
Rattus norvegicus = assay: Effect of metallo-protein haemoglobin in rat assessed as peak methemoglobin level at 400 mg/kg, sc administered as single dose; format: ADME, organism-based; conditions: in vivo
[3] = tested on: Mycolicibacterium smegmatis; assay: Antimycobacterial activity against DDS resistant Mycobacterium smegmatis ATCC 607 […]; format: functional
[4] = tested on: Mycolicibacterium smegmatis; assay: Antimycobacterial activity against DDS sensitive Mycobacterium smegmatis ATCC 607 […]; format: functional
Plasmodium berghei = assay: Antimalarial activity against Plasmodium berghei infected in albino mouse assessed survival against infection at 400 mg/kg, sc administered as single dose; format: functional
[5] = Drug excretion in rat urine at 400 mg/kg, sc administered as single dose measured after 30 days; format: ADME, organism-based; conditions: read-out: Drug excretion
[6] = Drug concentration in rat blood at 400 mg/kg, sc administered as single dose; format: ADME, organism-based; conditions: in vivo
[7] = tested on: Mycolicibacterium smegmatis; assay: Antimicrobial activity against Mycobacterium smegmatis incubated for 30 to 32 hrs under shaking condition relative to control; format: functional
[8] = tested on: Mycolicibacterium smegmatis; assay: Antimicrobial activity against Mycobacterium smegmatis incubated for 30 to 32 hrs under shaking condition; format: functional
Mycobacterium leprae [9] = assay: (§1) Inhibition of PGL1 synthesis in Mycobacterium leprae infected Swiss Webster mouse macrophages assessed as decrease in [U-14C]PA incorporation at 20 uM preincubated for 4 days post infection followed by [U-14C]PA addition and measured after 7 days by liquid scintillation counter analysis relative to control; format: functional
[10] = tested on: Mycobacterium tuberculosis; assay: Antimycobacterial activity against Mycobacterium tuberculosis H37Rv by BACTEC radiometric growth assay; format: functional
Mycobacterium leprae [11] = assay: Anti-leprotic activity against rifampicin-susceptible Mycobacterium leprae primary cultures at 4 weeks assessed as ATP level per 10^7 cells at 0.3 mg/L measured by bioluminescence assay (reference value: 332 +/- 46 pg); format: functional
Mycobacterium leprae [12] = assay: Anti-leprotic activity against rifampicin-susceptible Mycobacterium leprae subcultures at 4 weeks assessed as [3H]thymidine uptake per 5 times 10^7 cells at 0.3 mg/L incubated for 24 hrs (reference value: 1.41 +/- 0.20 pmol); format: functional
Mycobacterium leprae [13] = assay: Anti-leprotic activity against rifampicin-susceptible Mycobacterium leprae subcultures at 4 weeks assessed as ATP level per 10^7 cells at 0.3 mg/L measured by bioluminescence assay (reference value: 425 +/- 64 pg); format: functional
Mycobacterium leprae [14] = assay: Anti-leprotic activity against rifampicin-susceptible Mycobacterium leprae subcultures at 4 weeks assessed as [3H]thymidine uptake per 5 times 10^7 cells at 0.2 mg/L incubated for 24 hrs (reference value: 1.41 +/- 0.20 pmol); format: functional
Mycobacterium leprae [15] = assay: as §1, with “2” for “20”; format: functional
Mycobacterium leprae [16] = assay: Anti-leprotic activity against rifampicin-susceptible Mycobacterium leprae subcultures at 4 weeks assessed as [3H]thymidine uptake per 5 times 10^7 cells at 0.4 mg/L incubated for 24 hrs (reference value: 1.41 +/- 0.20 pmol); format: functional
Mycobacterium leprae [17] = assay: Anti-leprotic activity against rifampicin-susceptible Mycobacterium leprae subcultures at 4 weeks assessed as ATP level per 10^7 cells at 0.4 mg/L measured by bioluminescence assay (reference value: 425 +/- 64 pg); format: functional
Mycobacterium leprae [18] = assay: Anti-leprotic activity against rifampicin-susceptible Mycobacterium leprae primary cultures at 4 weeks assessed as ATP level per 10^7 cells at 0.4 mg/L measured by bioluminescence assay (reference value: 332 +/- 46 pg); format: functional
[19] = tested on: Mycobacterium tuberculosis; assay: Antitubercular activity against Mycobacterium tuberculosis H37Rv ATCC 27294 incubated for 7 days by microplate alamar blue assay; format: functional; conditions: H37Rv ATCC 27294, 168 h
Mycobacterium leprae [20] = assay: Anti-leprotic activity against rifampicin-susceptible Mycobacterium leprae primary cultures at 4 weeks assessed as [3H]thymidine uptake per 5 times 10^7 cells at 0.3 mg/L incubated for 24 hrs (reference value: 1.05 +/- 0.16 pmol); format: functional
Mycobacterium leprae [21] = assay: Anti-leprotic activity against rifampicin-susceptible Mycobacterium leprae primary cultures at 4 weeks assessed as [3H]thymidine uptake per 5 times 10^7 cells at 0.4 mg/L incubated for 24 hrs (reference value: 1.05 +/- 0.16 pmol); format: functional
Mycobacterium leprae [22] = assay: Anti-leprotic activity against rifampicin-susceptible Mycobacterium leprae primary cultures at 4 weeks assessed as [3H]thymidine uptake per 5 times 10^7 cells at 0.2 mg/L incubated for 24 hrs (reference value: 1.05 +/- 0.16 pmol); format: functional
Mycobacterium leprae [23] = assay: Anti-leprotic activity against rifampicin-susceptible Mycobacterium leprae primary cultures at 4 weeks assessed as ATP level per 10^7 cells at 0.2 mg/L measured by bioluminescence assay (reference value: 332 +/- 46 pg); format: functional
Mycobacterium leprae [24] = assay: Anti-leprotic activity against rifampicin-susceptible Mycobacterium leprae subcultures at 4 weeks assessed as ATP level per 10^7 cells at 0.2 mg/L measured by bioluminescence assay (reference value: 425 +/- 64 pg); format: functional
Mycobacterium leprae [25] = assay: Anti-leprotic activity against rifampicin-susceptible Mycobacterium leprae primary cultures at 4 weeks assessed as ATP level per 10^7 cells at 0.1 mg/L measured by bioluminescence assay (reference value: 332 +/- 46 pg); format: functional
Mycobacterium leprae [26] = assay: Anti-leprotic activity against rifampicin-susceptible Mycobacterium leprae subcultures at 4 weeks assessed as [3H]thymidine uptake per 5 times 10^7 cells at 0.1 mg/L incubated for 24 hrs (reference value: 1.41 +/- 0.20 pmol); format: functional
Mycobacterium leprae [27] = assay: Anti-leprotic activity against rifampicin-susceptible Mycobacterium leprae primary cultures at 4 weeks assessed as [3H]thymidine uptake per 5 times 10^7 cells at 0.1 mg/L incubated for 24 hrs (reference value: 1.05 +/- 0.16 pmol); format: functional
Mycobacterium leprae [28] = assay: Anti-leprotic activity against rifampicin-susceptible Mycobacterium leprae subcultures at 4 weeks assessed as ATP level per 10^7 cells at 0.1 mg/L measured by bioluminescence assay (reference value: 425 +/- 64 pg); format: functional
[29] = Cytotoxicity against LPS-induced human monocytes assessed as cell viability at 0.5 uM by tryphan blue staining based assay relative to control; design: species or system Monocyte; conditions: read-out: Activity
[30] = Cytotoxicity against LPS-induced human monocytes assessed as cell viability at 5 uM by tryphan blue staining based assay relative to control; design: species or system Monocyte; conditions: read-out: Activity
Monocyte [31] = assay: Antiinflammatory activity in human monocytes assessed as inhibition of LPS-induced TNFaplha production at 5 uM preincubated for 15 mins followed by LPS addition and measured after 4 hrs by ELISA relative to control; format: functional
Monocyte [32] = assay: Antiinflammatory activity in human monocytes assessed as inhibition of LPS-induced TNFaplha production at 25 uM preincubated for 15 mins followed by LPS addition and measured after 4 hrs by ELISA relative to control; format: functional
Monocyte [33] = assay: Antiinflammatory activity in human monocytes assessed as inhibition of LPS-induced TNFaplha production at 50 uM preincubated for 15 mins followed by LPS addition and measured after 4 hrs by ELISA relative to control; format: functional
Monocyte [34] = assay: Antiinflammatory activity in human monocytes assessed as inhibition of LPS-induced TNFaplha production at 0.5 uM preincubated for 15 mins followed by LPS addition and measured after 4 hrs by ELISA relative to control; format: functional
[35] = Cytotoxicity against LPS-induced human monocytes assessed as cell viability at 25 uM by tryphan blue staining based assay relative to control; design: species or system Monocyte; conditions: read-out: Activity
[36] = Cytotoxicity against LPS-induced human monocytes assessed as cell viability at 50 uM by tryphan blue staining based assay relative to control; design: species or system Monocyte; conditions: read-out: Activity

Compound: CC(=O)Nc1ccc(S(=O)(=O)c2ccc(N)cc2)cc1 [MONO-N-ACETYL DAPSONE]
- Time (Mycobacterium leprae [1]): 60 days
- half-life [2]: 32 days
- Activity (Rattus norvegicus): 1.2 g/dL
- MIC [3]: > 300 µg/mL
- MIC [4]: 13.8 µg/mL (≈ 47.5 µM)
- Survival (Plasmodium berghei): 3.5 weeks
- dose excreted at 720 h [5]: 50%
- Drug uptake [6]: 1.3 µg/mL

Compound: CCn1cc(C(=O)N/N=C\c2cc(OC)c(OC)c(OC)c2)c(=O)c2cc(F)c(N3CCN(C)CC3)cc21
- Activity [7]: >30%
- MIC [8]: 81.2 µM (≈ 42.7 µg/mL)

Compound: CCn1cc(C(=O)N/N=C\c2cccc(O)c2)c(=O)c2cc(F)c(N3CCN(C)CC3)cc21
- Activity [7]: >30%
- MIC [8]: 27.2 µM (≈ 12.3 µg/mL)

Compound: NNC(=O)c1ccncc1 [ISONIAZID]
- inhibition at 20 µM (Mycobacterium leprae [9]): 29%
- MIC [10]: 0.1 to 0.4 µg/mL (≈ 0.729 to 2.92 µM)

Compound: CO[C@H]1/C=C/O[C@@]2(C)Oc3c(C)c(O)c4c(O)c(c(/C=N/N5CCN(C)CC5)c(O)c4c3C2=O)NC(=O)/C(C)=C\C=C\[C@H](C)[C@H](O)[C@@H](C)[C@@H](O)[C@@H](C)[C@H](OC(C)=O)[C@@H]1C [RIFAMPIN]
- Activity (Mycobacterium leprae [11]): 0 pg
- Activity (Mycobacterium leprae [12]): 0.73 pmol
- Activity (Mycobacterium leprae [13]): 0 pg
- Activity (Mycobacterium leprae [14]): 0 pmol
- inhibition at 2 µM (Mycobacterium leprae [15]): 86%
- MIC [10]: 2 µg/mL (≈ 2.43 µM)
- Activity (Mycobacterium leprae [16]): 0 pmol
- Activity (Mycobacterium leprae [17]): 0 pg
- Activity (Mycobacterium leprae [18]): 0 pg
- MIC [19]: 25 µg/mL (≈ 30.4 µM)
- Activity (Mycobacterium leprae [20]): 0 pmol
- Activity (Mycobacterium leprae [21]): 0 pmol
- Activity (Mycobacterium leprae [22]): 0.7 pmol

Compound: CCCN1CCN(c2cc(O)c3nc4c5c6c7c(C)c(O)c5c(=O)c(c-4oc3c2)NC(=O)/C(C)=C\C=C\[C@H](C)[C@H](O)[C@@H](C)[C@@H](O)[C@@H](C)[C@H](OC(C)=O)[C@H](C)[C@@H](OC)/C=C/O[C@@](C)(O7)C6=O)CC1
- Activity (Mycobacterium leprae [11]): 0 pg
- Activity (Mycobacterium leprae [23]): 245 pg
- Activity (Mycobacterium leprae [12]): 0.84 pmol
- Activity (Mycobacterium leprae [13]): 0 pg
- Activity (Mycobacterium leprae [24]): 0 pg
- Activity (Mycobacterium leprae [14]): 1.3 pmol
- Activity (Mycobacterium leprae [25]): 298 pg
- Activity (Mycobacterium leprae [26]): 0 pmol
- Activity (Mycobacterium leprae [27]): 0.97 pmol
- Activity (Mycobacterium leprae [16]): 0 pmol
- Activity (Mycobacterium leprae [17]): 0 pg
- Activity (Mycobacterium leprae [18]): 0 pg
- Activity (Mycobacterium leprae [28]): 369 pg
- Activity (Mycobacterium leprae [20]): 0 pmol
- Activity (Mycobacterium leprae [21]): 0 pmol
- Activity (Mycobacterium leprae [22]): 0.79 pmol

Compound: O=C1c2ccccc2C(=O)N1c1ccc(F)c(F)c1
- viability at 0.5 µM [29]: 92%
- viability at 5 µM [30]: 95%
- inhibition at 5 µM (Monocyte [31]): 84%
- inhibition at 25 µM (Monocyte [32]): 100%
- inhibition at 50 µM (Monocyte [33]): 100%
- inhibition at 0.5 µM (Monocyte [34]): < 10%
- viability at 25 µM [35]: 88%
- viability at 50 µM [36]: 78%

Compound: CCc1cc(C(N)=S)ccn1 [ETHIONAMIDE]
- inhibition at 20 µM (Mycobacterium leprae [9]): 97%
- inhibition at 2 µM (Mycobacterium leprae [15]): 77%
